According to patent US20060134197A1, “Method of reducing unpleasant taste and/or unpleasant odor” (priority 2002, published 2006):

Columns and labels:
[1] = Inhibiting the production of hydrogen sulfide from L-cysteine due to heat-decomposition; conditions: 2.5 g L-cysteine hydrochloride and 5 g saccharide in 50 ml; 80° C. for 15 minutes; 100 minus relative value, control defined as 100
From the text: Two and half grams of precisely weighted L-cysteine hydrochloride (special reagent grade) and on a dry solid basis 5 g of a precisely measured saccharide sample; i.e. hydrous crystalline α,α-trehalose (reagent grade, purity 99.0% or more, commercialized by Hayashibara Biochemical Laboratories, Inc., Okayama, Japan), α-maltosyl α,α-trehalose prepared in the following Example 5 (purity 98.1%), or a reagent grade maltotetraose (purity 97.0% or more, commercialized by Hayashibara Biochemical Laboratories, Inc., Okayama, Japan); were placed in a 50-ml volume measuring flask and dissolved in deionized water to give a final volume of 50 ml. As a control, 2.5 g of precisely measured L-cysteine hydrochloride (special reagent grade) was dissolved in deionized water to give a final volume of 50 ml. Five ml of each sample was place into a 20-ml volume vial, sealed with a butyl gum cap, and kept at 80° C. for 15 minutes in an incubator. Hydrogen sulfide contained in 10 ml of the resulting headspace gas was measured by “GASTECH No. 4 LT”, a hydrogen sulfide detector commercialized by GL Science Corporation, under an aspiration time of one minute. The resulting value of the production of hydrogen sulfide of each test sample was compared with the value of control defined as 100 to calculate the relative value of the production of hydrogen sulfide. And then, the relative rate of inhibiting the production of hydrogen sulfide was calculated by 100 minus the relative value.

[2] = Panel test of lowering iron taste and/or smell of aqueous bivalent iron ion solution; design: key to Effect on lowering iron taste and/or smell: “Not effective (symbol “−”)” meaning of that the test aqueous solution showed no difference in iron taste and/or smell from that the control aqueous solution; “Slightly effective (symbol “+”)”, the test aqueous solution showes weaker iron taste and/or smell than the control aqueous solution but the deference was not significant; “Effective (symbol “++”)”, the test aqueous solution showed a slight iron taste and/or smell but it was significantly weaker than that of the control aqueous solution; “Strongly effective (symbol “+++”)”, the test aqueous solution showed almost no iron taste and/or smell; conditions: for Effect on lowering iron taste and/or smell: 5 mg bivalent iron per 100 ml, 12 panels
Protocol: To confirm the effect of various saccharides on inhibiting taste and/or smell of bivalent iron ion, the following experiment was carried out. An aqueous solution containing bivalent iron ion was prepared by dissolving 0.05556 part by weight of ammonium ferric citrate (iron content of about 18%), and 0.1 part by weight of ascorbic acid in 100 parts by weight of deionized water. Test aqueous solutions containing 5 mg of bivalent iron per 100 ml of water and 0.5, 1.0, 1.5, 2.0 or 5.0% of saccharide selected from sucrose, maltose (hydrous crystalline maltose commercialized by Hayashibara Biochemical Laboratories, Inc., Okayama, Japan, purify 99.0% or more), α,α-trehalose (hydrous crystalline α,α-trehalose commercialized by Hayashibara Biochemical Laboratories, Inc., Okayama, Japan, purity 99.0% or more), α-glucosyl α,α-trehalose (hydrous crystalline α-glucosyl α,α-trehalose prepared in Experiment B-1 of Japanese Patent Publication (Kokai) No. 291,986/1995, purity 99.0% or more), and […] (powdery α-maltosyl α,α-trehalose prepared in Example 5 described following, purity 98.1%) were prepared by admixing the above aqueous solution containing bivalent iron with an equal volume of a pre-prepared aqueous solution containing any one of the above saccharides at a concentration of 1.0, 2.0, 3.0, 4.0 or 10.0%, on a dry solid basis. As a control, an aqueous solution was prepared by admixing the aqueous solution containing bivalent iron ion with an equal volume of warter instead of the aqueous saccharide solution.
The effect on lowering iron taste and/or smell, namely unpleasant taste and/or smell of iron ion existing in a test aqueous solution at a concentration of 5 mg per 100 ml was judged by a panel test using 12 panels. […] In the judgement for each test aqueous solution, ten or more of 12 panels answered the same judgement.

[3] = Water solubility and hygroscopicity of the agents; assay type: physicochemical

Hygroscopicity [3] | Solubility in water [3] | Structure (SMILES) | Relative rate of inhibiting the production of hydrogen sulfide [1] | Effect on lowering iron taste and/or smell ([2]; saccharide 0.5%) | Effect on lowering iron taste and/or smell ([2]; saccharide 1.0%) | Effect on lowering iron taste and/or smell ([2]; saccharide 1.5%) | Effect on lowering iron taste and/or smell ([2]; saccharide 2.0%) | Effect on lowering iron taste and/or smell ([2]; saccharide 5.0%) | Concentration effective on lowering unpleasant taste and/or smell of aqueous iron ion solution ([2]; to the total weight of the aqueous solution, dry solid basis) [%]
 |  | OC[C@H]1O[C@H](O[C@H]2[C@H](O)[C@@H](O)[C@@H](O[C@H]3[C@H](O)[C@@H](O)[C@@H](O[C@H]4[C@H](O)[C@@H](O)C(O)O[C@@H]4CO)O[C@@H]3CO)O[C@@H]2CO)[C@H](O)[C@@H](O)[C@@H]1O (some centres unmarked) [Maltotetraose, maltotetraose] | 12 |  |  |  |  |  | 
 |  | OC[C@H]1O[C@H](O[C@H]2O[C@H](CO)[C@@H](O[C@H]3O[C@H](CO)[C@@H](O)[C@H](O)[C@H]3O)[C@H](O)[C@H]2O)[C@H](O)[C@@H](O)[C@@H]1O [α-Glucosyl α,α-trehalose, α-glucosyl α,α-trehalose] |  | − | + | ++ | ++ | +++ | 
 |  | OC[C@H]1O[C@H](O[C@H]2[C@H](O)[C@@H](O)C(O)O[C@@H]2CO)[C@H](O)[C@@H](O)[C@@H]1O (mixture of isomers) [Maltose, maltose] |  | − | − | − | + | + | ≥ 2
low hygroscopicity | satisfactory solubility in water | OC[C@H]1O[C@H](O[C@H]2O[C@H](CO)[C@@H](O[C@H]3O[C@H](CO)[C@@H](O[C@H]4O[C@H](CO)[C@@H](O)[C@H](O)[C@H]4O)[C@H](O)[C@H]3O)[C@H](O)[C@H]2O)[C@H](O)[C@@H](O)[C@@H]1O [α-Maltosyl α,α-trehalose, α-maltosyl α,α-trehalose] | 36 | − | + | ++ | ++ | +++ | 
